Test results as given in article PMC7504387, “Antimicrobial and Amyloidogenic Activity of Peptides Synthesized on the Basis of the Ribosomal S1 Protein from Thermus Thermophilus” (International Journal of Molecular Sciences, 2020).
≈ marks a conversion by molar mass, not a printed value. Entries after “also recorded” stand apart in the source; their conditions may differ. Where a SMILES comes first, the peptide text is derived from it. Where no end group is shown, it is not given here. [ ]: non-standard residue; d: D form. Sar = CNCC(=O)O

Assays:
[1] = Thioflavine T fluorescence assay of peptide aggregation; type: physicochemical; conditions: ThT 0.2 mM, 37 °C; for ThT fluorescence intensity, final: peptide alone 0.2 mM, 1% DMSO, end of kinetics (time axis to 80 min); for amyloids in peptide preparation according to ThT fluorescence: peptide alone
Procedure: (§1) Fibrils growth was monitored by thioflavine T (ThT) (Sigma-Aldrich, St. Louis, MO, USA) fluorescence. The kinetics of aggregation of peptides was studied using the method of fluorescence spectroscopy. Each kinetics graph was plotted based on the average of several results measured at different time intervals. To facilitate dissolution, all the samples of peptides were pre-dissolved in 100% DMSO, then buffers 50 mM Tris-HCl, pH 7.5, 150 mM NaCl or 20% acetic acid pH 2.0, 150 mM NaCl were added (1% final concentration DMSO) and filtered through […] membranes to remove small aggregates. ThT is the most commonly used fluorescent dye for the following amyloid formation semi-quantitatively in vitro. Free ThT has excitation and emission maxima at ∼350 and ∼450 nm, respectively (after binding to fibrils, the excitation and emission λmax change to ∼450 and ∼482–485 nm, respectively). A stock solution of ThT was prepared at a concentration of 20 mM in 50 mM Tris-HCl, pH 7.5, 150 mM NaCl or 20% acetic acid pH 2.0, 150 mM NaCl, respectively and stored at 4 °C protected from light. The final concentration of ThT was 0.2 mM, and each peptide was 0.2 mM. ThT was present in the sample during the fibril formation reaction. Measurements of ThT fluorescence were performed on a Cary Eclipse fluorescence spectrophotometer (Varian, Mulgrave, Australia) in quartz cells 3 × 3 mm at 37 °C.

[2] = test system: ribosomal S1 protein from T. thermophilus; assay: Thioflavine T fluorescence, coaggregation of peptide with S1 protein; conditions: S1:peptide ratios 1:1 and/or 1:5
Procedure: as §1

[3] = test system: ribosomal S1 protein from T. thermophilus; assay: Electron microscopy, coaggregation of peptide with S1 protein
Procedure: (§2) The presence of amyloid fibrils in the test samples was monitored by transmission electron microscopy (TEM). End-point solutions of peptides were collected and the samples were dissolved in the same solution to 0.2 mg/mL before studying with electron microscopy. A formvar-coated copper grid 400 mesh (Electron Microscopy Sciences, Hatfield, PA, USA) was placed on a 10 μL sample. After 5 min absorption, the grids with the preparation were negatively stained for 1.5–2.0 min with 1% (weight/volume) aqueous solution of uranyl acetate. The excess of the staining agent was removed with filter paper. The preparations were analyzed using a JEM-100C (Jeol, Tokyo, Japan) transmission electron microscope at the accelerating voltage of 80 kV. Images were recorded on the Kodak electron image film (SO-163) at nominal magnification of 40,000–60,000.

[4] = Transmission electron microscopy of peptide preparations; type: physicochemical; conditions: peptide alone
Procedure: as §2

[5] = test system: T. thermophilus cell culture; type: cell-based; conditions: for minimal inhibitory concentration (MIC): optical absorption at 600 nm after 24 h incubation, 5 repeats for R23I, 2 for R23T and V10I
Procedure: UV-Vis spectra were recorded using a spectrophotometr SF-102 (Akvilon, Moscow, Russia). At the end of the incubation, the density of the medium was estimated by spectrophotometry in a cuvette 10 mm with a total volume of 100 μL. The cuvettes were filled with the peptide water solutions and spectra were collected, using a wavelength from 600 nm. Biological activity of peptides was evaluated by their minimum concentration, which that may inhibit the growth of T. thermophilus bacteria culture. Biological activity of peptides was counted by using the following equation: (1) E=1−A (sample with peptide)/A (sample without peptide), where E is a biological activity of peptides, A is an optical absorption after 24 h incubation with and without peptide.
To construct a dose-effect curve and estimate the quantitative parameters of the curves, the statistical environment R and the drc package were used. The choice of model for describing the functional dependence was determined by several parameters: the logarithm of the maximum value of the likelihood function (logLik), the Akaike information criterion (IC), and the residual variance (Res var).
The algorithm for evaluating antimicrobial activity includes the study of this process and the dose–response relationship. The reaction of a biological object determines a quantitative assessment of the antimicrobial effect, depending not only on the concentration of the peptide, but also on the time of its action. Almost any impact begins with a certain threshold. An important final result of the experiment is the assessment of this threshold—the minimum inhibitory concentration (MIC) at which peptide influence is observed.

T. thermophilus cells = assay: Electron microscopy of intact and peptide-treated T. thermophilus cells; type: cell-based
Procedure: Along with the spectrophotometric method for determining the antimicrobial activity of peptides, the viability of cells was evaluated using electron microscopy. […] At the given peptide concentration, cells with a typical morphology and flagella were often found. Many protein aggregates were also observed. The absence of an antimicrobial effect with an increase in the concentration of the peptide to 1000 μg/mL, consistent with the spectrophotometry data of the antimicrobial activity of peptides (Figure 3).
as §2

[6] = peptide:S1 protein ratio 5:1 (S1:peptide = 1:5)

GlyGlySarGlyVVEGTVVEVT (GG[Sar]GVVEGTVVEVT) [G14T, elongated peptide GlyGlySarGly…]
ThT fluorescence intensity, final [1]: 4 a.u.
amyloids in peptide preparation according to ThT fluorescence [1]: presence of amyloids
amyloids on joint incubation with S1 protein according to ThT fluorescence [2]: presence of amyloids, which tend to disaggregate
morphology of peptide/S1 protein mixture by electron microscopy ([3]; peptide:S1 protein ratio 1:1): fibrils are not formed
aggregate/fibril morphology according to electron microscopy ([4]; negative staining, TEM): short dense fibrils

VTDFGVFVEI [V10I]
minimal inhibitory concentration (MIC) ([5]; T. thermophilus culture): 1000 µg/mL

GlyGlySarGlyVTDFGVFVEI [G14I, elongated peptide GlyGlySarGly[…]]
ThT fluorescence intensity, final [1]: 80 a.u.
amyloids in peptide preparation according to ThT fluorescence [1]: presence of amyloids

VVEGTVVEVT [V10T, unmodified amyloidogenic peptide … based on the ribosomal S1 protein from T. thermophilus]
amyloids on joint incubation with S1 protein according to ThT fluorescence [2]: presence of amyloids, which tend to disaggregate
morphology of peptide/S1 protein mixture by electron microscopy ([3]; peptide:S1 protein ratio 1:1): only aggregates are present
morphology of peptide/S1 protein mixture by electron microscopy [3, 6]: both aggregates and fibrils are present; also recorded: led to the formation of fibrils
cell morphology by electron microscopy (T. thermophilus cells; peptide 100 μg/mL): had no toxic effect

DFGVFVNLG [D9G, amyloidogenic peptide … based on the ribosomal S1 protein from T. thermophilus]
biological activity (growth inhibition) in the range of studied concentrations ([5]; T. thermophilus culture, OD 600 nm, 24 h, single repeat): did not show biological activity

NC[C@H]1O[C@H](O[C@H]2[C@H](O)[C@@H](O[C@H]3O[C@H](CO)[C@@H](O)[C@H](N)[C@H]3O)[C@H](N)C[C@@H]2N)[C@H](O)[C@@H](O)[C@@H]1O [kanamycin, reference compound]
change of optical density of T. thermophilus culture over time ([5]; 50 μg/mL in medium, OD 600 nm versus sampling time, DMSO control reached 0.8): no increase in the optical density
effectiveness E = 1 − A(sample with peptide)/A(sample without peptide) ([5]; T. thermophilus culture, OD 600 nm, 24 h, maximum observed, probably a limitation of the method): ≤ 0.8
concentration close to 50% of the inhibition of cell culture growth ([5]; T. thermophilus culture, dose-response curve, log-logistic model): ~10 µg/mL

CC(C)[C@H](NC(=O)CNC(=O)CN(C)C(=O)CNC(=O)CNC(=O)[C@H](CCCNC(=N)N)NC(=O)[C@H](CCCNC(=N)N)NC(=O)[C@H](CCCNC(=N)N)NC(=O)[C@H](CCC(N)=O)NC(=O)[C@H](CCCNC(=N)N)NC(=O)[C@H](CCCNC(=N)N)NC(=O)[C@H](CCCCN)NC(=O)[C@H](CCCCN)NC(=O)[C@@H](N)CCCNC(=N)N)C(=O)N[C@H](C(=O)N[C@@H](CCC(=O)O)C(=O)NCC(=O)N[C@H](C(=O)N[C@H](C(=O)N[C@H](C(=O)N[C@@H](CCC(=O)O)C(=O)N[C@H](C(=O)N[C@H](C(=O)O)[C@@H](C)O)C(C)C)C(C)C)C(C)C)[C@@H](C)O)C(C)C [R23T] (HELM PEPTIDE1{R.K.K.R.R.Q.R.R.R.G.G.[Sar].G.V.V.E.G.T.V.V.E.V.T}$$$$V2.0; N-terminus and C-terminus assumed)
amyloids in peptide preparation according to ThT fluorescence [1]: absence of R23T amyloids
morphology of peptide/S1 protein mixture by electron microscopy ([3]; peptide:S1 protein ratio 1:1): aggregates are observed; also recorded: aggregates of different sizes
morphology of peptide/S1 protein mixture by electron microscopy [3, 6]: aggregates of different morphology (type 1 and type 2), fibrils and thin films are formed; also recorded: both the fibrils and films were formed
fibril/aggregate formation by electron microscopy ([4]; 5 h incubation at 37 °C, 50 mM TrisHCl pH 7.5, 150 mM NaCl): did not form fibrils, but the aggregates were observed
minimal inhibitory concentration (MIC) ([5]; T. thermophilus culture): 500 µg/mL (≈ 193 µM)
cell morphology by electron microscopy (T. thermophilus cells; peptide 100 μg/mL): did not differ from the control
cell morphology by electron microscopy (T. thermophilus cells; peptide 500 μg/mL): cells were often damaged
